A value given as a limit tells only on which side of the number the result lay.

hPAD4 enzyme, sequence (Q9UM07 whole entry): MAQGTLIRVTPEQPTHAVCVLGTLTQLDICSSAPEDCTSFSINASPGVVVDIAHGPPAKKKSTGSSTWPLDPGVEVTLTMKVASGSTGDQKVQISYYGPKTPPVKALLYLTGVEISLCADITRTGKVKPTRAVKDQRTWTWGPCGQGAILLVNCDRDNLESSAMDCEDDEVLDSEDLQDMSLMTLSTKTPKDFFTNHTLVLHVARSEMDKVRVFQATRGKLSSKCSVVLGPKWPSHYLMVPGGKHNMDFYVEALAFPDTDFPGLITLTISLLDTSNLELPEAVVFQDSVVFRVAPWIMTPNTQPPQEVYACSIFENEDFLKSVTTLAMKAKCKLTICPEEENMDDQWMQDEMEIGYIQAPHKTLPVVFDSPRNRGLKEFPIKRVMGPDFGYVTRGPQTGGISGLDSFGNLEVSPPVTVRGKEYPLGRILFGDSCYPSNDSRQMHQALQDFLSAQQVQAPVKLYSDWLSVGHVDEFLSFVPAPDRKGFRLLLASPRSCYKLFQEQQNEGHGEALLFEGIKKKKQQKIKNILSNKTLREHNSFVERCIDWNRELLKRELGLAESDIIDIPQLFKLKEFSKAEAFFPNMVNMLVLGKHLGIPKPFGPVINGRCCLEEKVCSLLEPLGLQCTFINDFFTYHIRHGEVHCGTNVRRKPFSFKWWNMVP

This assay addresses hPAD4 enzyme (Homo sapiens (Human), UniProt Q9UM07). Kind of assay: RFMS2 assay (RapidFire mass spectrometry, TSTGGRQGSHH peptide substrate). In kind it is biochemical. Conditions: 35 nM recombinant human PAD4, 500 μM TSTGGRQGSHH peptide, 30 minutes at room temperature; read-out: RFMS 2 IC50. The method, boiled down: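 IC50 derived from RapidFire LC-MS/MS (positive ESI MRM) of substrate versus product after a 30 min room-temperature reaction stopped with 10% formic acid. Reaction contained 35 nM human PAD4, 500 μM peptide, 2 mM CaCl2, 5 mM DTT at pH 7.4, and compounds diluted 3-fold from 20 μM.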
As usually defined, the IC50 is the midpoint of a concentration-inhibition curve. As to `CNC(=O)OCCOc1cccc2cc(-c3nc4cc5c(cc4n3C)CCN(C[C@H](N)CF)C5=O)n(CC3CC3)c12` [Example 211, (S)-2-((2-(6-(2-amino-3-fluoropropyl)-1-methyl-5-oxo-5,6,7,8-tetrahydro-1H-imidazo[4,5-g]isoquinolin-2-yl)-1-(cyclopropylmethyl)-1H-indol-7-yl)oxy)ethyl methylcarbamate], the IC50 is 101 to 500 nM.
Next, `CC(Oc1cccc2cc(-c3nc4cc5c(cc4n3C)CCN(C[C@H](N)CF)C5=O)n(CC3CC3)c12)c1ccno1` (stereo partly drawn) [Example 197, 6-((S)-2-amino-3-fluoropropyl)-2-(1-(cyclopropylmethyl)-7-(1-(isoxazol-5-yl)ethoxy)-1H-indol-2-yl)-1-methyl-1,6,7,8-tetrahydro-5H-imidazo[4,5-g]isoquinolin-5-one]: 101 to 500 nM.
Next, `C[C@@H](N)CN1CCc2cc3c(cc2C1=O)nc(-c1cc2ccccc2n1Cc1ccccn1)n3C` [Example 84, (R)-6-(2-aminopropyl)-1-methyl-2-(1-(pyridin-2-ylmethyl)-1H-indol-2-yl)-1,6,7,8-tetrahydro-5H-imidazo[4,5-g]isoquinolin-5-one]: 101 to 500 nM; `Cc1cc(Cn2c(-c3nc4cc5c(cc4n3C)CCN(C[C@H](N)CF)C5=O)cc3ccccc32)no1` [Example 100, (S)-6-(2-amino-3-fluoropropyl)-1-methyl-2-(1-((5-methylisoxazol-3-yl)methyl)-1H-indol-2-yl)-1,6,7,8-tetrahydro-5H-imidazo[4,5-g]isoquinolin-5-one]: over 1000 nM; `C[C@@H](N)CN1CCc2cc3c(cc2C1=O)nc(-c1cc2ccc(C#N)cc2n1CC1CC1)n3C` [Example 32]: 101 to 500 nM.
Next, `C[C@@H](N)CN1CCc2cc3c(cc2C1=O)nc(-c1cc2cccc(C#N)c2n1CC1CC1)n3C` [Example 27, (R)-2-(6-(2-aminopropyl)-1-methyl-5-oxo-5,6,7,8-tetrahydro-1H-imidazo[4,5-g]isoquinolin-2-yl)-1-(cyclopropylmethyl)-1H-indole-7-carbonitrile]: 501 to 1000 nM; `CNC(=O)c1ccc2cc(-c3nc4cc5c(cc4n3C)CCN(C[C@H](N)CF)C5=O)n(CC3CC3)c2n1` [Example 63, (S)-2-(6-(2-amino-3-fluoropropyl)-1-methyl-5-oxo-5,6,7,8-tetrahydro-1H-imidazo[4,5-g]isoquinolin-2-yl)-1-(cyclopropylmethyl)-N-methyl-1H-pyrrolo[2,3-b]pyridine-6-carboxamide]: 501 to 1000 nM; `CCn1c(-c2nc3cc4c(cc3n2C)CCN(C[C@H](N)CF)C4=O)cc2ccccc21` [Example 134, (S)-6-(2-amino-3-fluoropropyl)-2-(1-ethyl-1H-indol-2-yl)-1-methyl-1,6,7,8-tetrahydro-5H-imidazo[4,5-g]isoquinolin-5-one]: over 1000 nM.
`Cn1c(-c2cc3cccc(OCC4(C)CNC(=O)C4)c3n2CC2CC2)nc2cc3c(cc21)CCN(C[C@H](N)CF)C3=O` (single isomer, unassigned) [Example 220]: the half-inhibitory concentration (IC50) was in the range of 501 to 1000 nM.
In the case of `CCc1cccc2cc(-c3nc4cc5c(cc4n3C)CCN(C[C@@H](C)N)C5=O)n(CC3CC3)c12` [Example 28, (R)-6-(2-aminopropyl)-2-(1-(cyclopropylmethyl)-7-ethyl-1H-indol-2-yl)-1-methyl-1,6,7,8-tetrahydro-5H-imidazo[4,5-g]isoquinolin-5-one], the IC50 is 101 to 500 nM.
As for `Cn1c(-c2cc3cccc(OCC4CNC4)c3n2CC2CC2)nc2cc3c(cc21)CCN(C[C@H](N)CF)C3=O` [Example 152, (S)-6-(2-amino-3-fluoropropyl)-2-(7-(azetidin-3-ylmethoxy)-1-(cyclopropylmethyl)-1H-indol-2-yl)-1-methyl-1,6,7,8-tetrahydro-5H-imidazo[4,5-g]isoquinolin-5-one], the figure is 101 to 500 nM.
As to `C[C@@H](N)CN1CCc2cc3c(cc2C1=O)nc(-c1cc2ccccc2n1CC12CC(C1)C2)n3C` [Example 73, (R)-6-(2-aminopropyl)-2-(1-(bicyclo[1.1.1]pentan-1-ylmethyl)-1H-indol-2-yl)-1-methyl-1,6,7,8-tetrahydro-5H-imidazo[4,5-g]isoquinolin-5-one], the IC50 is over 1000 nM.
Next, `COCCn1c(-c2nc3cc4c(cc3n2C)CCN(C[C@H](N)CF)C4=O)cc2cccnc21` [Example 106, (S)-6-(2-amino-3-fluoropropyl)-2-(1-(2-methoxyethyl)-1H-pyrrolo[2,3-b]pyridin-2-yl)-1-methyl-1,6,7,8-tetrahydro-5H-imidazo[4,5-g]isoquinolin-5-one]: over 1000 nM; `Cc1cc(Cn2c(-c3nc4cc5c(cc4n3C)CCN(C[C@H](N)CF)C5=O)cc3ccccc32)on1` [Example 97, (S)-6-(2-amino-3-fluoropropyl)-1-methyl-2-(1-((3-methylisoxazol-5-yl)methyl)-1H-indol-2-yl)-1,6,7,8-tetrahydro-5H-imidazo[4,5-g]isoquinolin-5-one]: 101 to 500 nM; `CC(C)c1ccc2cc(-c3nc4cc5c(cc4n3C)CCN(C[C@@H](C)N)C5=O)n(CC3CC3)c2c1` [Example 38, (R)-6-(2-aminopropyl)-2-(1-(cyclopropylmethyl)-6-isopropyl-1H-indol-2-yl)-1-methyl-1,6,7,8-tetrahydro-5H-imidazo[4,5-g]isoquinolin-5-one]: 101 to 500 nM.
Next, `COc1cccc2cc(-c3nc4cc5c(cc4n3C)CCN(C[C@H](N)CF)C5=O)n(Cc3ccc(C)o3)c12` [Example 143, (S)-6-(2-amino-3-fluoropropyl)-2-(7-methoxy-1-((5-methylfuran-2-yl)methyl)-1H-indol-2-yl)-1-methyl-1,6,7,8-tetrahydro-5H-imidazo[4,5-g]isoquinolin-5-one]: 101 to 500 nM; `Cn1c(-c2cc3cccc(OCc4cccnn4)c3n2CC2CC2)nc2cc3c(cc21)CCN(C[C@H](N)CF)C3=O` [Example 183, (S)-6-(2-amino-3-fluoropropyl)-2-(1-(cyclopropylmethyl)-7-(pyridazin-3-ylmethoxy)-1H-indol-2-yl)-1-methyl-1,6,7,8-tetrahydro-5H-imidazo[4,5-g]isoquinolin-5-one]: 101 to 500 nM; `Cn1c(-c2cc3cccc(OCCc4cnco4)c3n2CC2CC2)nc2cc3c(cc21)CCN(C[C@H](N)CF)C3=O` [Example 194, (S)-6-(2-amino-3-fluoropropyl)-2-(1-(cyclopropylmethyl)-7-(2-(oxazol-5-yl)ethoxy)-1H-indol-2-yl)-1-methyl-1,6,7,8-tetrahydro-5H-imidazo[4,5-g]isoquinolin-5-one]: 11 to 100 nM.
Next, `Cn1c(-c2cc3cccnc3n2Cc2ccno2)nc2cc3c(cc21)CCN(C[C@H](N)CF)C3=O` [Example 121, (S)-6-(2-amino-3-fluoropropyl)-2-(1-(isoxazol-5-ylmethyl)-1H-pyrrolo[2,3-b]pyridin-2-yl)-1-methyl-1,6,7,8-tetrahydro-5H-imidazo[4,5-g]isoquinolin-5-one]: over 1000 nM.
Regarding `Cn1c(-c2cc3cccc(OCC4CNC(=O)C4)c3n2CC2CC2)nc2cc3c(cc21)CCN(C[C@H](N)CF)C3=O` (stereo partly drawn) [Example 151], the half-inhibitory concentration (IC50) lay in the range of 11 to 100 nM.
Next, `Cn1c(-c2cc3cccc(OC[C@H]4CNCCO4)c3n2CC2CC2)nc2cc3c(cc21)CCN(C[C@H](N)CF)C3=O` [Example 160, 6-((S)-2-amino-3-fluoropropyl)-2-(1-(cyclopropylmethyl)-7-(((R)-morpholin-2-yl)methoxy)-1H-indol-2-yl)-1-methyl-1,6,7,8-tetrahydro-5H-imidazo[4,5-g]isoquinolin-5-one]: 501 to 1000 nM; `COc1cccc2cc(-c3nc4cc5c(cc4n3C)CCN(C[C@H](N)CF)C5=O)n(C[C@H]3CCCO3)c12` [Example 132, 6-((S)-2-amino-3-fluoropropyl)-2-(7-methoxy-1-(((R)-tetrahydrofuran-2-yl)methyl)-1H-indol-2-yl)-1-methyl-1,6,7,8-tetrahydro-5H-imidazo[4,5-g]isoquinolin-5-one]: 101 to 500 nM.
As for `Cc1ccc2cc(-c3nc4cc5c(cc4n3C)CCN(C[C@@H](C)N)C5=O)n(CC3CCC3)c2c1` [Example 83], the figure is 101 to 500 nM.
As for `COCCOc1cccc2cc(-c3nc4cc5c(cc4n3C)CCN(C[C@H](N)CF)C5=O)n(CC3CC3)c12` [Example 153, (S)-6-(2-amino-3-fluoropropyl)-2-(1-(cyclopropyl-methyl)-7-(2-methoxyethoxy)-1H-indol-2-yl)-1-methyl-1,6,7,8-tetrahydro-5H-imidazo[4,5-g] isoquinolin-5-one], the figure is 101 to 500 nM; as for `CN(C)CCOc1cccc2cc(-c3nc4cc5c(cc4n3C)CCN(C[C@H](N)CF)C5=O)n(CC3CC3)c12` [Example 154, (S)-6-(2-amino-3-fluoropropyl)-2-(1-(cyclopropyl-methyl)-7-(2-(dimethylamino)ethoxy)-1H-indol-2-yl)-1-methyl-1,6,7,8-tetrahydro-5H-imidazo[4,5-g] isoquinolin-5-one], over 1000 nM; as for `CC(C)c1ccc2cc(-c3nc4cc5c(cc4n3C)CCN(C[C@H](N)CF)C5=O)n(CC3CC3)c2c1` [Example 51, (S)-6-(2-amino-3-fluoropropyl)-2-(1-(cyclopropylmethyl)-6-isopropyl-1H-indol-2-yl)-1-methyl-1,6,7,8-tetrahydro-5H-imidazo[4,5-g]isoquinolin-5-one], 101 to 500 nM.
Take `Cn1c(-c2cc3cccc(OCc4nnco4)c3n2CC2CC2)nc2cc3c(cc21)CCN(C[C@H](N)CF)C3=O` [Example 176, (S)-2-(7-((1,3,4-oxadiazol-2-yl)methoxy)-1-(cyclopropylmethyl)-1H-indol-2-yl)-6-(2-amino-3-fluoropropyl)-1-methyl-1,6,7,8-tetrahydro-5H-imidazo[4,5-g]isoquinolin-5-one]: the 50% inhibitory concentration (IC50) fell in the range of 101 to 500 nM.
